In patent US5349060A, “Rapamycin 31-ester with N,N-dimethylglycine derivatives useful as immunosuppressive agents” (American Home Products Corporation, priority 1993, dated 1994):
Several values for one entry are separate records, joined by “and”; a condition that tells them apart may be missing. Equal entries are not always repeated. Structures can show the parent of a compound that is named as a salt.

Key:
[1] = tested on: cells from the thymus of normal BALB/c mice (thymocyte proliferation); test: comitogen-induced thymocyte proliferation procedure (LAF); format: cell-based; conditions: percent change in counts per minute from non-drug treated controls; for percent change in thymocyte proliferation (counts per minute) versus untreated control at 0.01 µM / percent change in thymocyte proliferation (counts per minute) versus untreated control at 0.1 µM: Mus musculus, 72 h, 72 h culture with PHA and IL-1; for percent change in thymocyte proliferation (counts per minute) versus untreated control at 0.01 µM: read-out: Percentage Inhibition in LAF Assay at 10 nM concentration, Analogs; for percent change in thymocyte proliferation (counts per minute) versus untreated control at 0.1 µM: read-out: Percentage Inhibition in LAF Assay at 100 nM concentration, Analogs
Description: Briefly, cells from the thymus of normal BALB/c mice were cultured for 72 hours with PHA and IL-1 and pulsed with tritiated thymidine during the last six hours. Cells are cultured with and without various concentrations of rapamycin, cyclospofin A, or test compound. Cells are harvested and incorporated; radioactivity is determined. Inhibition of lymphoproliferation is assessed in percent change in counts per minute from non-drug treated controls.

[2] = tested on: pinch skin graft from male BALB/c donors transplanted to male C3H recipients; test: skin graft assay (survival time of pinch skin graft); format: in vivo, mouse (BALB/c donors; conditions: intraperitoneally once daily for 6 consecutive days; rejection = 95% area necrosis or suture line off; typically rejected within 6-7 days without immunosuppressive agent
Description: The second in vivo test procedure is designed to determine the survival time of pinch skin graft from male BALB/c donors transplanted to male C3H recipients. The method is adapted from Billingham R. E. and Medawar P. B., J. Exp. Biol. 28:385-402, (1951). Briefly, a pinch skin graft from the donor is grafted on the dorsum of the recipient as an allograft and an isograft is used as control in the same region. The recipients are treated with the test compound, intraperitoneally once daily for 6 consecutive days. Untreated recipients serve as rejection control. The graft is monitored daily and observations are recorded until the graft becomes 95% area necrosis or the suture line is off. This is considered as the rejection day. The graft survival time is one day before the rejection day. The mean graft survival time (number of days ±S.D.) of the drug treatment group is compared with the control group.

[3] = tested on: formation of IgE-like antibodies; conditions: cited from earlier work
[4] = tested on: experimental allergic encephalomyelitis model, a model for multiple sclerosis; conditions: in vivo; cited from earlier work
[5] = tested on: adjuvant arthritis model, a model for rheumatoid arthritis; conditions: in vivo; cited from earlier work
[6] = tested on: Candida albicans; conditions: particularly against Candida albicans, both in vitro and in vivo; cited from earlier work
[7] = alone or in combination with picibanil; cited from earlier work

Row | SMILES | percent change in thymocyte proliferation (counts per minute) versus untreated control at 0.01 µM ([1]; 10 nM) [%] | percent change in thymocyte proliferation (counts per minute) versus untreated control at 0.1 µM ([1]; 100 nM) [%] | Skin Graft Assay, Analogs (mean graft survival time, days ± SD) [2] [days] | other results
1 | CO[C@H]1C[C@@H]2CC[C@@H](C)[C@@](O)(O2)C(=O)C(=O)N2CCCC[C@H]2C(=O)O[C@H]([C@H](C)C[C@@H]2CC[C@@H](OC(C)=O)[C@H](OC)C2)CC(=O)[C@H](C)/C=C(\C)[C@@H](OC(=O)CN(C)C)[C@@H](OC)C(=O)[C@H](C)C[C@H](C)/C=C/C=C/C=C/1C [Example 2, Rapamycin 31-Ester With N,N-dimethylglycine HCl Salt 42-Ester With Acetic Acid] | -59 | -96 |  | 
2 | CO[C@H]1C[C@@H]2CC[C@@H](C)[C@@](O)(O2)C(=O)C(=O)N2CCCC[C@H]2C(=O)O[C@H]([C@H](C)C[C@@H]2CC[C@@H](OC(=O)Nc3ccc(F)cc3)[C@H](OC)C2)CC(=O)[C@H](C)/C=C(\C)[C@@H](OC(=O)CN(C)C)[C@@H](OC)C(=O)[C@H](C)C[C@H](C)/C=C/C=C/C=C/1C [Example 4, Rapamycin 31-Ester With N,N-dimethylglycine HCl Salt 41-Ester With 4-fluorophenyl Carbamic Acid] | -38 | -94 | 8.17 ± 0.41 | 
3 | CO[C@H]1C[C@@H]2CC[C@@H](C)[C@@](O)(O2)C(=O)C(=O)N2CCCC[C@H]2C(=O)O[C@H]([C@H](C)C[C@@H]2CC[C@@H](OC(=O)NS(=O)(=O)c3ccccc3)[C@H](OC)C2)CC(=O)[C@H](C)/C=C(\C)[C@@H](OC(=O)CN(C)C)[C@@H](OC)C(=O)[C@H](C)C[C@H](C)/C=C/C=C/C=C/1C [Example 5, Rapamycin 31-Ester With N,N-dimethylglycine HCl Salt 42-Ester With Phenylsulfonyl Carbamic Acid] | 1 | -35 | 10.00 ± 0.57 | 
4 | CO[C@H]1C[C@@H]2CC[C@@H](C)[C@@](O)(O2)C(=O)C(=O)N2CCCC[C@H]2C(=O)O[C@H]([C@H](C)C[C@@H]2CC[C@@H](O)[C@H](OC)C2)CC(=O)[C@H](C)/C=C(\C)[C@@H](O)[C@@H](OC)C(=O)[C@H](C)C[C@H](C)/C=C/C=C/C=C/1C [Rapamycin] |  |  |  | inhibition of the formation of IgE-like antibodies [3]: effectively inhibited; effect in the experimental allergic encephalomyelitis model [4]: effective; effect in the adjuvant arthritis model [5]: effective; Percentage Inhibition in LAF Assay at 10 nM concentration, Rapamycin ([1]; 10 nM, rapamycin comparator): -85% and -89%; Percentage Inhibition in LAF Assay at 100 nM concentration, Rapamycin ([1]; 100 nM, rapamycin comparator, 0.1 µM): -97% and -96% and -94% and -95%; antifungal activity [6]: antifungal activity; antitumor activity [7]: antitumor activity
5 | CO[C@H]1C[C@@H]2CC[C@@H](C)[C@@](O)(O2)C(=O)C(=O)N2CCCC[C@H]2C(=O)O[C@H]([C@H](C)C[C@@H]2CC[C@@H](O)[C@H](OC)C2)CC(=O)[C@H](C)/C=C(\C)[C@@H](OC(=O)CN(C)C)[C@@H](OC)C(O)[C@H](C)C[C@H](C)/C=C/C=C/C=C/1C (stereo partly drawn) [Example 6, 33-Deoxy-33-hydroxyrapamycin 31-Ester With N,N-dimethylglycine HCl Salt] | -13 | -76 | 9.50 ± 1.22 | 
6 | CO[C@H]1C[C@@H]2CC[C@@H](C)[C@@](O)(O2)C(=O)C(=O)N2CCCC[C@H]2C(=O)O[C@H]([C@H](C)C[C@@H]2CC[C@@H](OS(=O)(=O)c3cccc4cccnc34)[C@H](OC)C2)CC(=O)[C@H](C)/C=C(\C)[C@@H](OC(=O)CN(C)C)[C@@H](OC)C(=O)[C@H](C)C[C@H](C)/C=C/C=C/C=C/1C [Example 7, Rapamycin 31-Ester With N,N-dimethylglycine 42-Ester With 8-quinolinesulfonic Acid] | -62 | -94 | 9.33 ± 1.22 | 
7 | CO[C@H]1C[C@@H]2CC[C@@H](C)[C@@](O)(O2)C(=O)C(=O)N2CCCC[C@H]2C(=O)O[C@H]([C@H](C)C[C@@H]2CC[C@@H](OS(=O)(=O)c3cccc4c(N(C)C)cccc34)[C@H](OC)C2)CC(=O)[C@H](C)/C=C(\C)[C@@H](OC(=O)CN(C)C)[C@@H](OC)C(=O)[C@H](C)C[C@H](C)/C=C/C=C/C=C/1C [Example 8, Rapamycin 31-Ester With N,N-dimethylglycine 42-Ester With 5-(dimethylamino)naphthalene-1-sulfonic Acid] | 13 | -54 |  | 
8 | CO[C@H]1C[C@@H]2CC[C@@H](C)[C@@](O)(O2)C(=O)C(=O)N2CCCC[C@H]2C(=O)O[C@H]([C@H](C)C[C@@H]2CC[C@@H](OS(=O)(=O)c3ccc(C)cc3)[C@H](OC)C2)CC(=O)[C@H](C)/C=C(\C)[C@@H](OC(=O)CN(C)C)[C@@H](OC)C(=O)[C@H](C)C[C@H](C)/C=C/C=C/C=C/1C [Example 1, Rapamycin 31-Ester With N,N-dimethylglycine HCl Salt 42-Ester With p-toluenesulfonic Acid] | -6 | -74 |  | 
9 | CO[C@H]1C[C@@H]2CC[C@@H](C)[C@@](O)(O2)C(=O)C(=O)N2CCCC[C@H]2C(=O)O[C@H]([C@H](C)C[C@@H]2CC[C@@H](OC(=O)Nc3ccccc3)[C@H](OC)C2)CC(=O)[C@H](C)/C=C(\C)[C@@H](OC(=O)CN(C)C)[C@@H](OC)C(=O)[C@H](C)C[C@H](C)/C=C/C=C/C=C/1C [Example 3, Rapamycin 31-Ester With N,N-dimethylglycine HCl Salt 42-Ester With Phenylcarbamic Acid] | -14 | -82 |  | 
